Experimental data published in US8003615B2, “Stable vitamin B6 derivative” (Daiichi Fine Chemical Co., Ltd., priority 2003, dated 2011).

How the values were obtained:
[1] = assay type: physicochemical; conditions: 0.5% (w/v) aqueous solution; for coloring of the aqueous solution after the light irradiation: D65 fluorescent lamp 13,000 Lx; for decomposition after light irradiation: pH about 6.3-7.2, D65 fluorescent lamp 13,000 Lx, room temperature, 14 days
Protocol: A 0.5% (w/v) aqueous solution of pyridoxine 3-β-D-glucoside (pH 6.7) in a volume of 0.3 ml was enclosed in a 1-ml volume glass ampoule, and irradiated with a D65 fluorescent lamp (Toshiba) for 14 days. The irradiation was performed at room temperature with an illumination of 13,000 Lx. Samples before the irradiation and after 1 day, 7 days and 14 days of the irradiation were analyzed by HPLC to measure a pyridoxine 3-β-D-glucoside content. A solution of pyridoxine hydrochloride of the same concentration (adjusted to pH 6.7) was treated in the same manner, and the results were compared. The HPLC measurement conditions were as follows.
Column: Inertsil ODS-3 ([…], ([…], φ4.6×150 mm, GL Science Inc.)
Eluent acetonitrile:0.1% (v/v) trifluoroacetic acid, 5 mM sodium 1-hexanesulfonate=1:9
Column temperature: 40° C.
Aqueous solutions (0.5% (w/v)) of pyridoxine 3-β-D-glucoside hydrochloride, pyridoxal 3-β-D-glucoside, pyridoxamine 3-β-D-glucoside, pyridoxine 3-β-D-galactoside, and pyridoxine hydrochloride (adjusted to pH 6.3 to 7.2 with HCl or NaOH) were each sealed in a volume of 0.3 ml in a 1-ml volume glass ampoule, and light irradiation and HPLC quantification were performed in the same manner as in Test Example 1. […] Test Example 4 (thermal stability of pyridoxine 3-β-D-glucoside hydrochloride and various 3-glycosides) […]

[2] = Thermal stability of aqueous solution kept at 50° C., HPLC; assay type: physicochemical; conditions: 0.5% (w/v) aqueous solution; for coloring of the aqueous solution after the warming: 50° C. for 90 days; for decomposed by warming: pH about 6.3-7.2, 50° C. for 90 days
Protocol: A 0.5% (w/v) aqueous solution of pyridoxine 3-β-D-glucoside (pH 6.7) in a volume of 0.3 ml was sealed in a 1-ml volume glass ampoule, and kept at 50° C. under light shielding. The sample was warmed for 90 days, and analyzed during the warming by HPLC (analysis conditions were the same as those applied in Test Example 1) to measure a pyridoxine 3-β-D-glucoside content. A solution of pyridoxine hydrochloride of the same concentration (adjusted to pH 6.7) was treated in the same manner, and the results were compared.
Aqueous solutions (0.5% (w/v)) of pyridoxine 3-β-D-glucoside hydrochloride, pyridoxal 3-β-D-glucoside, pyridoxamine 3-β-D-glucoside, pyridoxine 3-β-D-galactoside, pyridoxine hydrochloride, pyridoxal hydrochloride, and pyridoxamine hydrochloride (adjusted to pH 6.3 to 7.2 with HCl or NaOH) were each sealed in a volume of 0.3 ml in a 1-ml volume glass ampoule, […] in the same manner as in Test Example 2.
0.5% (w/v) Aqueous solutions of pyridoxine 3,4′-cyclic sodium phosphate and pyridoxine hydrochloride (adjusted to pH 6.5 to 6.8) were each sealed in a volume of 0.3 ml in a 1-ml volume glass ampoule, and warming at 50° C. and HPLC analysis were performed in the same manner as in Test Example 2.

hairless mouse = conditions: 2% sample applied on the back 90 minutes before ultraviolet irradiation, 2 hours, 5 times/week, ten weeks; positive control DETAPAC
Protocol: It was evaluated whether or not the sample prepared by the following preparing method suppressed wrinkle formation caused by ultraviolet irradiation.
DETAPAC was used as a positive control.
Mice (10-week old) in each group consisting of 8 mice were applied with each of the aforementioned samples on the back 90 minutes before ultraviolet irradiation, and irradiated with ultraviolet rays of a fixed quantity (Toshiba FL20 S-BLB lamp) for 2 hours (5 times/week) over ten weeks to examine suppressing effect on wrinkle formation.
Wrinkle formation after the ultraviolet irradiation of ten weeks was graded in accordance with the “skin photoaging grades” mentioned below. The results were indicated as averages of the scores for eight mice.

mouse B16 melanoma cells [3] = assay: Test for melanin production suppression and cell survival rate in cultured cells; assay type: cell-based; parameters: key to Evaluation (whitening degree of B16 melanoma cells): +: whitening effect comparable to that of the control; ±: whitening effect a little weaker than that of the control; ×: no effect; −: test was not performed; conditions: for Evaluation (whitening degree of B16 melanoma cells): control 100 μg/ml kojic acid; for Cell growth rate: relative to control taken as 100%; for suppressing effect on melanin production: overall conclusion from the tables
Protocol: Cultured mouse B16 melanoma cells were used. An appropriate amount of MEM medium containing 10% FBS was added to wells of two 6-well plates, and the B16 melanoma cells were inoculated, and incubated at 37° C. with 5 volume % CO2. On the next day, a sample-containing solution was added so that the medium contained the vitamin B6 derivative (pyridoxine 3-β-D-glucoside or pyridoxine 3-β-D-glucoside hydrochloride) at a final solid concentrations shown in FIG. 20, and then mixed. On the 5th day of the culture, the medium was exchanged, and the sample-containing solution was again added. On the next day, the medium was removed, and for one plate, the cells were washed with phosphate buffer (pH 7.0), and then collected. Then, whitening degree of the cultured B16 melanoma cells was evaluated according to the criteria mentioned below by using 100 μg/ml kojic acid as a control. […] The cell growth rate is indicated with a relative ratio based on that of the control, which is taken as 100%.

mouse B16 melanoma cells [4] = assay: Melanin production suppression by combination with whitening agent (arbutin); assay type: cell-based; conditions: substance and arbutin each 100 μM, 5 days culture, intracellular melanin relative to solvent control
Protocol: Cultured mouse B16 melanoma cells were used. A vitamin B6 derivative (pyridoxine 3-β-D-glucoside) and arbutin (Wako Pure Chemical Industries) dissolved in purified water at given concentrations were each added to the medium at a concentration of 100 μM. With exchanges of the medium during the culture, the cells were cultured for 5 days, and then collected. The cell number was counted, and then intracellular melanin was quantified. As a control added with a solvent, the medium added with purified water was used. Based on the amount of the melanin observed for the control added with the solvent, which was taken as 1, the relative amount of intracellular melanin observed for each sample concentration was considered a melanin production ratio.

[5] = 50° C., in pharmaceutical preparations; cited from earlier work
[6] = final concentration 333.3 μg/mL

coloring of the aqueous solution after the light irradiation [1] | coloring of the aqueous solution after the warming [2] | decomposed by warming [2] | decomposition after light irradiation [1] | Compound | further results
– | colored in yellow | ~85% | – | Cc1ncc(CO)c(CN)c1O.Cl [pyridoxamine hydrochloride, reference compound] | –
– | no coloring was observed | almost no decomposition | no decomposition was observed | Cc1ncc(CO)c2c1OP(=O)([O-])OC2.[Na+] [pyridoxine 3,4′-cyclic sodium phosphate, Pyridoxine 3,4′-cyclic sodium phosphate] | –
no coloring was observed | no coloring was observed | almost no decomposition | not observed | Cc1ncc(CO)c(CO)c1O[C@@H]1O[C@H](CO)[C@H](O)[C@H](O)[C@H]1O [pyridoxine 3-β-D-galactoside, Pyridoxine 3-β-D-galactoside] | –
no coloring was observed | no coloring was observed | almost no decomposition | not observed | Cc1ncc(CO)c(CO)c1O[C@@H]1O[C@H](CO)[C@@H](O)[C@H](O)[C@H]1O.Cl [pyridoxine 3-β-D-glucoside hydrochloride] | suppressing effect on wrinkle formation (skin photoaging grades) (hairless mouse): comparable to or higher than that of DETAPAC; Evaluation (whitening degree of B16 melanoma cells) (mouse B16 melanoma cells [3]; final concentration 100 μg/mL): ×; Cell growth rate (mouse B16 melanoma cells [3]; final concentration 100 μg/mL): 100%; Evaluation (whitening degree of B16 melanoma cells) (mouse B16 melanoma cells [3]; [6]): ×; Cell growth rate (mouse B16 melanoma cells [3]; [6]): 100%; Evaluation (whitening degree of B16 melanoma cells) (mouse B16 melanoma cells [3]; final concentration 1000 μg/mL): ×; Cell growth rate (mouse B16 melanoma cells [3]; final concentration 1000 μg/mL): 97%; Evaluation (whitening degree of B16 melanoma cells) (mouse B16 melanoma cells [3]; final concentration 3333 μg/mL): +; Cell growth rate (mouse B16 melanoma cells [3]; final concentration 3333 μg/mL): 87%; suppressing effect on melanin production (mouse B16 melanoma cells [3]): superior suppressing effect on melanin production
no coloring was observed | no coloring was observed | almost no decomposition | not observed | Cc1ncc(CO)c(CO)c1O[C@@H]1O[C@H](CO)[C@@H](O)[C@H](O)[C@H]1O [pyridoxine 3-β-D-glucoside, Pyridoxine 3-β-D-glucoside] | Evaluation (whitening degree of B16 melanoma cells) (mouse B16 melanoma cells [3]; final concentration 10 μg/mL): ×; Cell growth rate (mouse B16 melanoma cells [3]; final concentration 10 μg/mL): 101%; Evaluation (whitening degree of B16 melanoma cells) (mouse B16 melanoma cells [3]; final concentration 30 μg/mL): ×; Cell growth rate (mouse B16 melanoma cells [3]; final concentration 30 μg/mL): 101%; Evaluation (whitening degree of B16 melanoma cells) (mouse B16 melanoma cells [3]; final concentration 100 μg/mL): ×; Cell growth rate (mouse B16 melanoma cells [3]; final concentration 100 μg/mL): 101%; Evaluation (whitening degree of B16 melanoma cells) (mouse B16 melanoma cells [3]; final concentration 300 μg/mL): ±; Cell growth rate (mouse B16 melanoma cells [3]; final concentration 300 μg/mL): 101%; Evaluation (whitening degree of B16 melanoma cells) (mouse B16 melanoma cells [3]; final concentration 1000 μg/mL): +; Cell growth rate (mouse B16 melanoma cells [3]; final concentration 1000 μg/mL): 102%; suppressing effect on melanin production (mouse B16 melanoma cells [3]): superior suppressing effect on melanin production; suppressing effect on melanin production in combination with arbutin (mouse B16 melanoma cells [4]): superior suppressing effect on melanin production

More lines, now with the values behind:

Compound | coloring of the aqueous solution after the light irradiation [1] | coloring of the aqueous solution after the warming [2] | decomposed by warming [2] | decomposition after light irradiation [1] | further results
Cc1ncc(CO)c(C=O)c1O[C@@H]1O[C@H](CO)[C@@H](O)[C@H](O)[C@H]1O [pyridoxal 3-β-D-glucoside, Pyridoxal 3-β-D-glucoside] | no coloring was observed | no coloring was observed | almost no decomposition | – | –
Cc1ncc(CO)c(C=O)c1O.Cl [pyridoxal hydrochloride, reference compound] | – | colored in yellow | ~55% | – | –
Cc1ncc(CO)c(CN)c1O[C@@H]1O[C@H](CO)[C@@H](O)[C@H](O)[C@H]1O [pyridoxamine 3-β-D-glucoside, Pyridoxamine 3-β-D-glucoside] | no coloring was observed | no coloring was observed | almost no decomposition | not observed | –
Cc1ncc(CO)c(CO[C@H]2O[C@H](CO)[C@@H](O)[C@H](O)[C@H]2O)c1O [pyridoxine 4′-α-D-glucoside] | – | – | – | – | long term stability compared with pyridoxine hydrochloride [5]: superior long term stability
N-(4-pyridoxylmethylene)-L-serine 3-β-D-glucoside | – | – | – | no decomposition was observed | –
